In ChEMBL document CHEMBL1201862, “PubChem BioAssay data set” (2004):
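Dose response: 5 concentrations. Exposure: 48 h. Format: 96-well plates. Endpoint: linear interpolation; highest concentration if not reached. GI50 = concentration required for 50% inhibition of growth.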 Active and inactive are the calls of the source. No stated cut-off is given here; in the data, active = GI50 up to about 1.1 µM and inactive = higher.

What was measured:
Experiment in all cases: inhibition of tumour cell growth, NCI panel, 48 h
786-0 = system: 786-0
A498 = system: A498
A549 = system: A549
ACHN = system: ACHN
BT-549 = system: BT-549
CAKI-1 = system: CAKI-1
CCRF-CEM = system: CCRF-CEM
COLO 205 = system: COLO 205
DU-145 = system: DU-145
EKVX = system: EKVX
HCC 2998 = system: HCC 2998
HCT-116 = system: HCT-116
HCT-15 = system: HCT-15
HL-60 = system: HL-60
HOP-62 = system: HOP-62
HOP-92 = system: HOP-92
HT-29 = system: HT-29
Hs-578T = system: Hs-578T
K562 = system: K562
KM12 = system: KM12
LOX IMVI = system: LOX IMVI
M14 = system: M14
MCF7 = system: MCF7
MDA-MB-231 = system: MDA-MB-231
MDA-MB-435 = system: MDA-MB-435
MDA-N = system: MDA-N
MOLT-4 = system: MOLT-4
Malme-3M = system: Malme-3M
NCI-H226 = system: NCI-H226
NCI-H23 = system: NCI-H23
NCI-H460 = system: NCI-H460
NCI-H522 = system: NCI-H522
NCI/ADR-RES = system: NCI/ADR-RES
OVCAR-3 = system: OVCAR-3
OVCAR-4 = system: OVCAR-4
OVCAR-5 = system: OVCAR-5
OVCAR-8 = system: OVCAR-8
PC-3 = system: PC-3
RPMI-8226 = system: RPMI-8226
RXF 393 = system: RXF 393
SF-268 = system: SF-268
SF-295 = system: SF-295
SF-539 = system: SF-539
SK-MEL-28 = system: SK-MEL-28
SK-MEL-2 = system: SK-MEL-2
SK-MEL-5 = system: SK-MEL-5
SK-OV-3 = system: SK-OV-3
SN12C = system: SN12C
SNB-19 = system: SNB-19
SNB-75 = system: SNB-75
SR = system: SR
SW-620 = system: SW-620
T47D = system: T47D
TK-10 = system: TK-10
U-251 = system: U-251
UACC-257 = system: UACC-257
UACC-62 = system: UACC-62
UO-31 = system: UO-31
IGROV-1 = system: IGROV-1

With `c1ccc(CSc2nnc3c4ccccc4c4ccccc4c3n2)cc1` the GI50 (786-0) was 34.8 µM (inactive), the GI50 (A498) was > 64.1 µM (inactive) and the GI50 (A549) was > 89.3 µM (inactive). The GI50 (ACHN) was 61 µM (inactive), the GI50 (BT-549) was 50 µM (inactive) and the GI50 (CAKI-1) was 78.9 µM (inactive). For the same molecule, the GI50 (CCRF-CEM) was 27.7 µM (inactive), the GI50 (COLO 205) was > 100 µM (inactive) and the GI50 (DU-145) was > 82.2 µM (inactive). The GI50 (EKVX) was 27.2 µM (inactive), the GI50 (HCC 2998) was 51.1 µM (inactive) and the GI50 (HCT-116) was > 82.4 µM (inactive). For the same molecule, the GI50 (HCT-15) was greater than 100 µM, the GI50 (HL-60) was > 36.2 µM (inactive) and the GI50 (HOP-62) was 24.8 µM (inactive). For the same molecule, the GI50 (HOP-92) was 21.2 µM (inactive), the GI50 (HT-29) was > 100 µM (inactive) and the GI50 (Hs-578T) was 36.2 µM (inactive). The GI50 (K562) was 14.8 µM (inactive), the GI50 (KM12) was > 100 µM (inactive) and the GI50 (LOX IMVI) was 62.7 µM (inactive). For the same molecule, the GI50 (M14) was > 100 µM (inactive), the GI50 (MCF7) was 29.1 µM (inactive) and the GI50 (MDA-MB-231) was 35.2 µM (inactive). For the same molecule, the GI50 (MDA-MB-435) was 58.1 µM (inactive), the GI50 (MDA-N) was 56.1 µM (inactive) and the GI50 (MOLT-4) was 39.1 µM (inactive). The GI50 (Malme-3M) was 86.1 µM (inactive), the GI50 (NCI-H226) was 45.6 µM (inactive) and the GI50 (NCI-H23) was 48.2 µM (inactive). For the same molecule, the GI50 (NCI-H460) was > 88.3 µM (inactive), the GI50 (NCI-H522) was 33.2 µM (inactive) and the GI50 (NCI/ADR-RES) was 60.5 µM (inactive). For the same molecule, the GI50 (OVCAR-3) was 21.7 µM (inactive), the GI50 (OVCAR-4) was 48.1 µM (inactive) and the GI50 (OVCAR-5) was > 100 µM (inactive). For the same molecule, the GI50 (OVCAR-8) was 35.5 µM (inactive), the GI50 (PC-3) was 64.9 µM (inactive) and the GI50 (RPMI-8226) was 48 µM (inactive). For the same molecule, the GI50 (RXF 393) was > 52.1 µM (inactive), the GI50 (SF-268) was 19.1 µM (inactive) and the GI50 (SF-295) was 23.2 µM (inactive). The GI50 (SF-539) was 31.4 µM (inactive), the GI50 (SK-MEL-28) was > 100 µM (inactive) and the GI50 (SK-MEL-2) was 36.6 µM (inactive). For the same molecule, the GI50 (SK-MEL-5) was > 100 µM (inactive), the GI50 (SK-OV-3) was 17.7 µM (inactive) and the GI50 (SN12C) was > 93.8 µM (inactive). For the same molecule, the GI50 (SNB-19) was 33.2 µM (inactive), the GI50 (SNB-75) was 8.73 µM (inactive) and the GI50 (SR) was 30.2 µM (inactive). For the same molecule, the GI50 (SW-620) was 38.2 µM (inactive), the GI50 (T47D) was 34.1 µM (inactive) and the GI50 (TK-10) was 26.9 µM (inactive). The GI50 (U-251) was 33.3 µM (inactive), the GI50 (UACC-257) was > 100 µM (inactive) and the GI50 (UACC-62) was 46 µM (inactive). For the same molecule, the GI50 (UO-31) was > 57.7 µM (inactive).
`NCc1ccccc1.O=C(O)NCc1ccccc1` was tested, and the GI50 (786-0) was 36.3 µM (inactive), the GI50 (A498) was 29 µM (inactive) and the GI50 (A549) was 34.9 µM (inactive). For the same molecule, the GI50 (ACHN) was 35.9 µM (inactive), the GI50 (BT-549) was 29.5 µM (inactive) and the GI50 (CAKI-1) was 42.7 µM (inactive). For the same molecule, the GI50 (CCRF-CEM) was 19.4 µM (inactive), the GI50 (COLO 205) was 19.3 µM (inactive) and the GI50 (DU-145) was 42.8 µM (inactive). For the same molecule, the GI50 (EKVX) was 30.6 µM (inactive), the GI50 (HCC 2998) was 22.5 µM (inactive) and the GI50 (HCT-116) was 25.1 µM (inactive). The GI50 (HCT-15) was 30.8 µM, the GI50 (HL-60) was 26.7 µM (inactive) and the GI50 (HOP-62) was 38 µM (inactive). The GI50 (HOP-92) was 19.6 µM (inactive), the GI50 (HT-29) was 27.7 µM (inactive) and the GI50 (Hs-578T) was 26.1 µM (inactive). The GI50 (IGROV-1) was 26.1 µM (inactive), the GI50 (K562) was 24.3 µM (inactive) and the GI50 (KM12) was 26.2 µM (inactive). The GI50 (LOX IMVI) was 30.3 µM (inactive), the GI50 (M14) was 33.9 µM (inactive) and the GI50 (MCF7) was 34.8 µM (inactive). The GI50 (MDA-MB-231) was 10.3 µM (inactive), the GI50 (MDA-MB-435) was 31.5 µM (inactive) and the GI50 (MDA-N) was 29.5 µM (inactive). The GI50 (MOLT-4) was 18.8 µM (inactive), the GI50 (Malme-3M) was 27.4 µM (inactive) and the GI50 (NCI-H226) was 30.1 µM (inactive). For the same molecule, the GI50 (NCI-H23) was 27.5 µM (inactive), the GI50 (NCI-H460) was 26.5 µM (inactive) and the GI50 (NCI-H522) was 21.8 µM (inactive). For the same molecule, the GI50 (NCI/ADR-RES) was 26.9 µM (inactive), the GI50 (OVCAR-3) was 31.4 µM (inactive) and the GI50 (OVCAR-4) was 25.1 µM (inactive). The GI50 (OVCAR-5) was 30.1 µM (inactive), the GI50 (OVCAR-8) was 37.1 µM (inactive) and the GI50 (PC-3) was 20.8 µM (inactive). For the same molecule, the GI50 (RPMI-8226) was 12.6 µM (inactive), the GI50 (RXF 393) was 38.5 µM (inactive) and the GI50 (SF-268) was 39.7 µM (inactive). The GI50 (SF-295) was 31.2 µM (inactive), the GI50 (SF-539) was 41.1 µM (inactive) and the GI50 (SK-MEL-28) was 38.2 µM (inactive). For the same molecule, the GI50 (SK-MEL-2) was 8.91 µM (inactive), the GI50 (SK-MEL-5) was 16.8 µM (inactive) and the GI50 (SK-OV-3) was 37.5 µM (inactive). For the same molecule, the GI50 (SN12C) was 31.8 µM (inactive), the GI50 (SNB-19) was 40.3 µM (inactive) and the GI50 (SNB-75) was 27.4 µM (inactive). For the same molecule, the GI50 (SR) was 0.682 µM (active), the GI50 (SW-620) was 34.8 µM (inactive) and the GI50 (T47D) was 23.9 µM (inactive). For the same molecule, the GI50 (TK-10) was 31.4 µM (inactive), the GI50 (U-251) was 26.9 µM (inactive) and the GI50 (UACC-257) was 32 µM (inactive). For the same molecule, the GI50 (UACC-62) was 15.1 µM (inactive) and the GI50 (UO-31) was 24.3 µM (inactive).
